Experimental data published in ChEMBL document CHEMBL6087482, “Discovery of INCB159020, an Orally Bioavailable KRAS G12D Inhibitor” (J Med Chem, 2025).

Columns and labels:
[1] = Apparent permeability across apical to basolateral side in human Caco-2 cells at 50 uM incubated for 120 mins by LC-MS analysis; assay type: ADME, cell-based
[2] = Intrinsic clearance in human liver microsomes at 1 uM measured upto 30 mins in presence of NADPH by LC/MS analysis; assay type: ADME, Microsome; conditions: read-out: CLH (converted)
[3] = Cmax in Sprague-Dawley rat at 3 mg/kg, po or 1 mg/kg, iv measured after 24 hrs by LC-MS/MS analysis; assay type: ADME, organism-based; conditions: in vivo
[4] = AUC in Sprague-Dawley rat at 3 mg/kg, po or 1 mg/kg, iv measured after 24 hrs by LC-MS/MS analysis; assay type: ADME, organism-based; conditions: in vivo
[5] = Oral bioavailability in Sprague-Dawley rat at 3 mg/kg measured after 24 hrs by LC-MS/MS analysis; assay type: ADME, organism-based; conditions: in vivo
[6] = Clearance in Sprague-Dawley rat assessed as hepatic blood flow at 3 mg/kg, po or 1 mg/kg, iv measured after 24 hrs by LC-MS/MS analysis; assay type: ADME, organism-based; conditions: in vivo
[7] = Half-life in Sprague-Dawley rat at 3 mg/kg, po or 1 mg/kg, iv measured after 24 hrs by LC-MS/MS analysis; assay type: ADME, organism-based; conditions: in vivo
[8] = Cmax in Non human primate at […], po or 1 mg/kg, iv; assay type: ADME, organism-based; conditions: primates, in vivo, dose 1.5 mg/kg
[9] = AUC in Non human primate at […], po or 1 mg/kg, iv; assay type: ADME, organism-based; conditions: primates, in vivo, dose 1.5 mg/kg
[10] = Oral bioavailability in Non human primate at […]; assay type: ADME, organism-based; conditions: primates, in vivo, dose 1.5 mg/kg
Primates = assay: Clearance in Non human primate assessed as hepatic blood flow at […], po or 1 mg/kg, iv; assay type: ADME, organism-based; conditions: in vivo, dose 1.5 mg/kg
[11] = Half-life in Non human primate at […], po or 1 mg/kg, iv; assay type: ADME, organism-based; conditions: primates, in vivo, dose 1.5 mg/kg
[12] = Solubility of compound in SGF; assay type: physicochemical
[13] = Solubility of compound in FASSIF; assay type: physicochemical
Cytochrome P450 3A4 = Cytochrome P450 3A4 (Homo sapiens, UniProt P08684); assay: Inhibition of CYP3A4 (unknown origin); assay type: ADME
Chain of Cytochrome P450 3A4 (P08684 whole entry): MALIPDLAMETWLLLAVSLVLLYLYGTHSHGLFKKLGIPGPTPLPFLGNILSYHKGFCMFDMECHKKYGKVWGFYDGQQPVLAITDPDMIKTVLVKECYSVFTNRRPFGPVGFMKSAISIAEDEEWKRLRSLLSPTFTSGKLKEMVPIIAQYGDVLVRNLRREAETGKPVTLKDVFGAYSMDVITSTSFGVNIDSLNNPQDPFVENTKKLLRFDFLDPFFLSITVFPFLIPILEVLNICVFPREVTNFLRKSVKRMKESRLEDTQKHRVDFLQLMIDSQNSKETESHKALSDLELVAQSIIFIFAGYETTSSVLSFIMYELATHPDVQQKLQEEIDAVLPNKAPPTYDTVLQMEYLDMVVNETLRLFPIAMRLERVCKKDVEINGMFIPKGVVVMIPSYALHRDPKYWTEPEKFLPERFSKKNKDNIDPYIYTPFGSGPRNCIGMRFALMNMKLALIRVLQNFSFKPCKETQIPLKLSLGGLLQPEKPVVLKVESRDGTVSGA

Cytochrome P450 2D6 = Cytochrome P450 2D6 (Homo sapiens, UniProt P10635); assay: Inhibition of CYP2D6 (unknown origin); assay type: ADME
Chain of Cytochrome P450 2D6 (P10635 whole entry): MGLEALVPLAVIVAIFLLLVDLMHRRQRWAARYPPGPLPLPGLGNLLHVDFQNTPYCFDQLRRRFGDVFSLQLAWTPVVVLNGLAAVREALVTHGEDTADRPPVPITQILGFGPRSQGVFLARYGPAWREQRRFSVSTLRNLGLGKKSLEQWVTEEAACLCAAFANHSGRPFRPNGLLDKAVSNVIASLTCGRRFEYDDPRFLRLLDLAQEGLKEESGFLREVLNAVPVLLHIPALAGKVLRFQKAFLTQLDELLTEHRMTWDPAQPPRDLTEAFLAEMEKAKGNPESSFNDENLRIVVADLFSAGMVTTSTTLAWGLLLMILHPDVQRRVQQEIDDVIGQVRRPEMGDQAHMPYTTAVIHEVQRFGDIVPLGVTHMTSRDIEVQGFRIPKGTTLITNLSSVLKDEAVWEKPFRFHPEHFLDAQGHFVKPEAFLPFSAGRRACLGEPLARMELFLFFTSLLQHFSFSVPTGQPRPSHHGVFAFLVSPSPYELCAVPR

Cytochrome P450 2C9 = Cytochrome P450 2C9 (Homo sapiens, UniProt P11712); assay: Inhibition of CYP2C9 (unknown origin); assay type: ADME
Chain of Cytochrome P450 2C9 (P11712 whole entry): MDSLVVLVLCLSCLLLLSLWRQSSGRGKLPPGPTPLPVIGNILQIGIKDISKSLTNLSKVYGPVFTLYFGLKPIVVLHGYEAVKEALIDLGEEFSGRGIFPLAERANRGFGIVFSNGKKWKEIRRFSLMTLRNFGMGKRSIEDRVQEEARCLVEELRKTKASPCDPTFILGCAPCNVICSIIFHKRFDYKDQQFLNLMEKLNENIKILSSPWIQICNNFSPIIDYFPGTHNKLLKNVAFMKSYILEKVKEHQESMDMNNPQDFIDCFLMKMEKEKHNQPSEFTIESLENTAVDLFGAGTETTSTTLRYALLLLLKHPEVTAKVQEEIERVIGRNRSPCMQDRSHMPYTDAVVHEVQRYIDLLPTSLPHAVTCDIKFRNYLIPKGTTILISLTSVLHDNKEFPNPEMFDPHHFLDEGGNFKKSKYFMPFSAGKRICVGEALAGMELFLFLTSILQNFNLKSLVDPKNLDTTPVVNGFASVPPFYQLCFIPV

Cytochrome P450 2B6 = target: T1, Cytochrome P450 2B6 (Homo sapiens, UniProt P20813); assay: Inhibition of CYP2B6 (unknown origin); assay type: ADME
T1 sequence (P20813 whole entry): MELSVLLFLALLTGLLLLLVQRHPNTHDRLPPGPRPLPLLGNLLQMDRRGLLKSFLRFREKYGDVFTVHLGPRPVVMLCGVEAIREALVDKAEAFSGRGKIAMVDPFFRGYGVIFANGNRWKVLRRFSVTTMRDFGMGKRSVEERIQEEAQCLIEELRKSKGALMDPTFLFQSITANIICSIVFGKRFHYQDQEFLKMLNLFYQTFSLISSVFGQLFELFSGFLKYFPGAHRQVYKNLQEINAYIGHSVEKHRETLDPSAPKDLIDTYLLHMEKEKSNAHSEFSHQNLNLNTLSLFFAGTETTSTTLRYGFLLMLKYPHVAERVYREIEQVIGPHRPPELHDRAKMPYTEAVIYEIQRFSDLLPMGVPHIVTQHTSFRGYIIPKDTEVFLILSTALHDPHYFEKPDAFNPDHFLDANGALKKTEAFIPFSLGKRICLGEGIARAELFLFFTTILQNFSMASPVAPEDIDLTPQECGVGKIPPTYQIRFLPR

Cytochrome P450 1A2 = target: T2, Cytochrome P450 1A2 (Homo sapiens, UniProt P05177); assay: Inhibition of CYP1A2 (unknown origin); assay type: ADME
T2 sequence (P05177 whole entry): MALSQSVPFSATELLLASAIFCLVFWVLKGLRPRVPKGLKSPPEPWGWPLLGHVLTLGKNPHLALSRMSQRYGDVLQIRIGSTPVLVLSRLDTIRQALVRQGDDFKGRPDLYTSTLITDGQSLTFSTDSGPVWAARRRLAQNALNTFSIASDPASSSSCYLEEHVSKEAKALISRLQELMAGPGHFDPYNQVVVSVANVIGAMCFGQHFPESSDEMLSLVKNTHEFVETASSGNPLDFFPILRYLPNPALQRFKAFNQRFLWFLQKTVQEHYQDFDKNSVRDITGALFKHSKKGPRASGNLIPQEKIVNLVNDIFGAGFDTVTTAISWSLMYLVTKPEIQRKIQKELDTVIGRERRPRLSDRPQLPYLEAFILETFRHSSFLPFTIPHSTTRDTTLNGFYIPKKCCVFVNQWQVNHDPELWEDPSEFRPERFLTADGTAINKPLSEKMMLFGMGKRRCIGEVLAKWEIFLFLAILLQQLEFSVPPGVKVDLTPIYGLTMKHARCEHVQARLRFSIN

[14] = target: Voltage-gated inwardly rectifying potassium channel KCNH2 (Homo sapiens, UniProt Q12809); assay: Inhibition of human ERG; assay type: toxicity
Chain of Voltage-gated inwardly rectifying potassium channel KCNH2 (Q12809 whole entry): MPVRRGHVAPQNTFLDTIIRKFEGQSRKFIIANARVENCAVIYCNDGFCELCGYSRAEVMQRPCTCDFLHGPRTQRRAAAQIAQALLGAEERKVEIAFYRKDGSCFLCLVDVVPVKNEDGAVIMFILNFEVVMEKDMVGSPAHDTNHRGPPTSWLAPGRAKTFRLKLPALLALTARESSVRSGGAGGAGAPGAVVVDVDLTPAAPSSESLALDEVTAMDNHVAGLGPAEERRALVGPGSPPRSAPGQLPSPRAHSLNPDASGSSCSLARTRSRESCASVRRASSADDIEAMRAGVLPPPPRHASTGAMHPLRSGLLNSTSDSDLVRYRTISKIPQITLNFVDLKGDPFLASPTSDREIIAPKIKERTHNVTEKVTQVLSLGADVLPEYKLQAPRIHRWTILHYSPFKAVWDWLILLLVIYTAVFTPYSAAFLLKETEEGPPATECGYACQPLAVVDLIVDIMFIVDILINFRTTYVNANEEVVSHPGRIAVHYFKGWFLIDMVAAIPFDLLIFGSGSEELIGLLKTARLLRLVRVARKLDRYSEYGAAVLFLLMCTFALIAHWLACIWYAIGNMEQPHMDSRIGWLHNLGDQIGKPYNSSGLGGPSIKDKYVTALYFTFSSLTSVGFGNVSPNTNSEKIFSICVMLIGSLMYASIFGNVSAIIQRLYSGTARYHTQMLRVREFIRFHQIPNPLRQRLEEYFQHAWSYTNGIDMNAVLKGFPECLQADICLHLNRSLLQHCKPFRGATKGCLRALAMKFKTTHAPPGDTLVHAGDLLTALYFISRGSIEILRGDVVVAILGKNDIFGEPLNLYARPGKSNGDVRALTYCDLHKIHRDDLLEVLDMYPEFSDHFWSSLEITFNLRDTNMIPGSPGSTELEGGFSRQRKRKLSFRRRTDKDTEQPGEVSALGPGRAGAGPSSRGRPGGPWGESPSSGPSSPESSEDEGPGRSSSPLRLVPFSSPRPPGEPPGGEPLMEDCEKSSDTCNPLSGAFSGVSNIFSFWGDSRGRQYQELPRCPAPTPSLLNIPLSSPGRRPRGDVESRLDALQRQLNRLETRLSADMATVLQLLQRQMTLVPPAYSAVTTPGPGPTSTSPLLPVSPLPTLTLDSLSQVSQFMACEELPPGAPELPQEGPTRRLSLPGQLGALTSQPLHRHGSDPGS

Cytochrome P450 = assay: Time dependent inhibition of CYP (unknown origin); assay type: ADME, protein assay; conditions: human
[15] = target: High affinity nerve growth factor receptor (Homo sapiens, UniProt P04629); assay: Binding affinity to TRKA (unknown origin) in presence of ATP
Chain of High affinity nerve growth factor receptor (P04629 whole entry): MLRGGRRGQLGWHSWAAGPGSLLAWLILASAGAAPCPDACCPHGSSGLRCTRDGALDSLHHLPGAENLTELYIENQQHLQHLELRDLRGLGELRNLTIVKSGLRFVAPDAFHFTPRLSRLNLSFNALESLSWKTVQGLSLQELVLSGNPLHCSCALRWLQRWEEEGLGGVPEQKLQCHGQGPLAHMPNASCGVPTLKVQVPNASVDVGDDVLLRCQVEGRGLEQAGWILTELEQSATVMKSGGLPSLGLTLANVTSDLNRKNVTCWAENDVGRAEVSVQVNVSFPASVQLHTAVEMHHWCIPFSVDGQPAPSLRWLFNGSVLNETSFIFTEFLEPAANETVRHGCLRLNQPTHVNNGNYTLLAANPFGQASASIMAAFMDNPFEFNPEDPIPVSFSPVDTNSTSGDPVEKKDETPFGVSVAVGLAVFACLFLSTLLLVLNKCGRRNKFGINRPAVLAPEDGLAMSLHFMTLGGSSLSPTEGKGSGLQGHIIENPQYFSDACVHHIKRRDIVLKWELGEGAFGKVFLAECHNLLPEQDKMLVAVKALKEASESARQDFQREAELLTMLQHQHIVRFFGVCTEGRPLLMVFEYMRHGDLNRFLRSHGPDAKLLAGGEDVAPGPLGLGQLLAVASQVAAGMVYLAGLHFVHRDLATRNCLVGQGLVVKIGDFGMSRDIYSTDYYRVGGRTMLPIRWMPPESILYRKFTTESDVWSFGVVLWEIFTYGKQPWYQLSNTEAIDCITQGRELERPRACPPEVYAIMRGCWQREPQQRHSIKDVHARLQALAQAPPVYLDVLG

Aurora kinase B = Aurora kinase B (Homo sapiens, UniProt Q96GD4); assay: Binding affinity to Aurora B (unknown origin) in presence of ATP
Chain of Aurora kinase B (Q96GD4 whole entry): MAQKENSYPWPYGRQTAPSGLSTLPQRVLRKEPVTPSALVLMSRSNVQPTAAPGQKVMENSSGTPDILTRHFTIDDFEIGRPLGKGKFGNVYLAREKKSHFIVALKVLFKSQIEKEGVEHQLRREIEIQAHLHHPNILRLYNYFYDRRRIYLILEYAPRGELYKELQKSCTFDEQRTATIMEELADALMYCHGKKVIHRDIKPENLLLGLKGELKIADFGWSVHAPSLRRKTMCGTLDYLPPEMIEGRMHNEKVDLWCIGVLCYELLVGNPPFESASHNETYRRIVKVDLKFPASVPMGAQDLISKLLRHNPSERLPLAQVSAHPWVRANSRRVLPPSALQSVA

[16] = Drug concentration in mouse plasma xenografted with HPAC cells at 100 mg/kg, po measured after 24 hrs; assay type: ADME, organism-based
[17] = Drug concentration in mouse plasma xenografted with HPAC cells at 300 mg/kg, po measured after 24 hrs; assay type: ADME, organism-based
[18] = Toxicity in mouse xenografted with human HPAC cells assessed as tolerance at 30 to 300 mg/kg, po measured after 24 hrs; assay type: organism-based; conditions: in vivo, dose 30-300 mg/kg

Papp A→B at 2 h, 50 µM [1]: 3.6 ×10⁻⁶ cm/s | hepatic clearance at 1 µM [2]: 16.7 mL/min/kg | Cmax [3]: 57 nM | AUC at 24 h [4]: 0.331 µM·h | bioavailability [5]: 27% | QH [6]: > 100% | half-life [7]: 3.8 h | Cmax [8]: 100 nM | AUC [9]: 0.95 µM·h | bioavailability [10]: 42% | QH (Primates): 37% | half-life [11]: 6.4 h | solubility [12]: > 900 µg/mL | solubility [13]: > 79 µg/mL | IC50 (Cytochrome P450 3A4): 17 µM | IC50 (Cytochrome P450 2D6): 7.2 µM | IC50 (Cytochrome P450 2C9): > 20 µM | IC50 (Cytochrome P450 2B6): > 20 µM | IC50 (Cytochrome P450 1A2): > 20 µM | TDI (Cytochrome P450): Not_active | IC50 [15]: 3.9 µM | IC50 (Aurora kinase B): 5.8 µM | concentration at 24 h [16]: ~950 nM | concentration at 24 h [17]: ~8500 nM
Compound: Cc1cnc(-c2nc3c(F)c(-c4cccc(Cl)c4C)c(CCC#N)cc3c3c2cc([C@@H](C)N2CCOCC2=O)n3[C@H]2[C@H]3CN[C@@H]2C3)cn1
IC50 [14]: 11.2 µM | Activity [18]: Non-toxic
